Test results: patent publication EP0480690A1, “Aqueous ophthalmic microemulsions of tepoxalin” (CIBA-GEIGY AG, priority 1990, dated 1992)

Assays:
rabbit cornea = experiment: In vitro corneal penetration in modified Ussing chambers; type: in vitro ADME; conditions: 0.1% suspension and 0.1% microemulsion, 0 to 240 minutes
Description: Modified Ussing type chambers (H.F. Edelhauser, J.R. Hoffert, P.O. Fromm, Invest. Ophthalmol. Vis. Sci., 4:290-296 (1965)) designed with 2.5 ml donor and 2.5 ml receiver cells (separated by the cornea which is mounted between two sealing rings) are used for the studies to determine penetration of the cornea by the microemulsions of the invention. The system is 2-chambered (in vitro cells) (see Figure 1) and is designed to monitor the penetration of drug entities across biological membranes. Usually the cells are temperature controlled by means of an exterior water jacket; the stirring of the dosing and receiving solutions in the cells is achieved by bubbling a gas through the cells. In the case of the cornea, the gas is a mixture of 5% CO₂ balanced with oxygen, to maintain physiological Ph.
The eyes were enucleated with the conjunctival sac and lids attached. The cornea was excised and mounted using the Dikstein and Maurice Technique (S. Dikstein and D.M. Maurice, J. Physiol., 221: 29-41 (1972)). […]
100 µl Aliquots were sampled from the receiver side over a 4-hour period (0, 15, 30, 45, 60, 90, 120, 180 and 240 minutes). […] The mounted corneas were removed from the cells and the percentage hydration calculated by weighing the isolated tissue before and after drying (the corneas were placed in an oven overnight at 45°C). […] Untreated corneas were assessed as controls. […]

[1] = Solubility studies on tepoxalin in various vehicles; type: physicochemical
Source text: The low aqueous solubility of tepoxalin prompted solubility experiments with oils, surfactants, hydroxypropyl-beta-cyclodextrin, and combinations thereof. These experiments are summarized above in Table 1. A tepoxalin content of greater than 0.1% could be attained with a microemulsion using 1% castor oil and 2% of a Tween (polysorbate). […] The sequence of adding, mixing, and sonicating the drug and excipients is important in attaining a concentration greater than 0.1%.
Thus, 0.134% of the 0.15% drug in the emulsion resides in the interface.

[2] = Accelerated degradation of tepoxalin (16 hours at 100°C, HPLC); type: physicochemical
Description: The results of the first stability study prompted an investigation for a way to reformulate. Tepoxalin appears to hydrolyze at the amide group to form a carboxylic acid. An accelerated procedure has been developed to observe this degradation within 16 hours. The sample is analyzed by reversed-phase HPLC using a diode array for detection. […] With disodium Edetate in the microemulsion, the drug degraded at and above pH 7.0; degradation was minimal at pH's 5.0, 5.5 and 6.0. Thus, a second stability study was begun with 0.03% disodium Edetate in the formulation and the pH adjusted to 5.9 - 6.1 with a citric acid/sodium phosphate dibasic buffer.
A number of experiments were performed in succession in order to elucidate a mechanism for the degradation of tepoxalin in water and in the microemulsion and to determine optimum conditions for the tepoxalin microemulsion. The drug is suspected of vulnerability to acid and base catalysis of its […] amide group forming a carboxylic acid. The experiments and results: • (a) 0.1% tepoxalin was dissolved in 50:50 water: ethanol and aliquots were pH adjusted with 1M NaOH to 5.0, 6.0, 7.0, 8.0 and 12.6. The aliquots were heated in capped reaction vials for 16 hours at 100°C.
Two drops of 1M citric acid solution were added to an aliquot (1 ml) and the pH was adjusted with 1.0 M sodium phosphate dibasic to pH 5.0, 6.0, 7.0, and 7.6. The samples were heated as before.
The chromatograms show two major degradation products: one eluting before tepoxalin and another after.
The optimum pH appears between pH 6.2 and 6.4, but there is still significant degradation. • (d) The previous experiment (c) was repeated with disodium Edetate 0.03% in each sample and with the same pH range.
The presence of the second degradate that elutes before tepoxalin is also minimal. • (e) Experiment (d) was repeated with a broader pH range: 5.0, 5.5, 6.0, and 7.0.

- Tepoxalin Solubility ([1]; Matrix: Water, Neat): 0.00044%
- Tepoxalin Solubility ([1]; Oil, Surfactant Microemulsion: castor oil 1%, Tween 60 2%): 0.15%
- Tepoxalin Solubility ([1]; Oil, Surfactant Microemulsion: castor oil 1%, Tween 80 2% (tepoxalin is added after microemulsion)): 0.085%
- Tepoxalin Solubility ([1]; Oil, Surfactant Microemulsion: castor oil 1%, Tween 80 2% (tepoxalin is added before emulsion is prepared)): 0.147%
- Tepoxalin Solubility ([1]; Oil, Surfactant Microemulsion: castor oil 2%, Tween 80 2%): 0.106%
- Tepoxalin Solubility ([1]; Oil, Surfactant Microemulsion: castor oil 3%, Pluronic P-105 7%): 0.108%
- Tepoxalin Solubility ([1]; Oils: Cottonseed, Neat): 0.06%
- Tepoxalin Solubility ([1]; Oils: castor, Neat): 1.6%
- Tepoxalin Solubility ([1]; Oils: mineral, Neat): 0.0%
- Tepoxalin Solubility ([1]; Oils: perfluoro-decalin, Neat): 0.0%
- Tepoxalin Solubility ([1]; Oils: sesame, Neat): 0.4%
- Tepoxalin Solubility ([1]; Oils: sunflower Seed, Neat): 0.4%
- Tepoxalin Solubility ([1]; Surfactant and HP-β-CD Solution: HP-β-CD 5%, Tween 80 2%): 0.097%
- Tepoxalin Solubility ([1]; Surfactant and HP-β-CD Solution: HP-β-CD 10%, Tween 80 1%): 0.113%
- Tepoxalin Solubility ([1]; Surfactants: Pluronic F-127, aqueous 6%): 0.035%
- Tepoxalin Solubility ([1]; Surfactants: Pluronic P-105, aqueous 6% w/w): 0.099%
- Tepoxalin Solubility ([1]; Surfactants: Tween 20, aqueous 2%): 0.053%
- Tepoxalin Solubility ([1]; Surfactants: Tween 40, aqueous 2%): 0.066%
- Tepoxalin Solubility ([1]; Surfactants: Tween 60, aqueous 2%): 0.079%
- Tepoxalin Solubility ([1]; Surfactants: Tween 80, aqueous 1%): 0.030%
- Tepoxalin Solubility ([1]; Surfactants: Tween 80, aqueous 2%): 0.089%
- Tepoxalin Solubility ([1]; Surfactants: Tween 80, aqueous 3%): 0.099%
- Tepoxalin Solubility ([1]; Surfactants: Tween 80, aqueous 6%): 0.120%
- Maximum tepoxalin solubility for castor oil ([1]; castor oil): 1.6%
- tepoxalin content ([1]; microemulsion using 1% castor oil and 2% of a Tween (polysorbate)): greater than 0.1%
- drug in the emulsion that resides in the interface ([1]; of the 0.15% drug in the emulsion, 1% castor oil dispersed): 0.134%
- pH of optimum stability ([2]; microemulsion with disodium Edetate 0.03%, from tepoxalin peak areas and heights): optimum stability between 5.5 and 6.0
- pH of minimum degradation ([2]; microemulsion without Edetate, pH range 5 to 7.6): 6.2 - 6.4
SMILES: COc1ccc(-n2nc(CCC(=O)N(C)O)cc2-c2ccc(Cl)cc2)cc1 [Tepoxalin, 3-[5-(4-chlorophenyl)-1-(4-methoxyphenyl)-3-pyrazolyl]-N-hydroxy-N-methylpropanamide]
- penetration of tepoxalin across the cornea (rabbit cornea): penetrating the cornea from both formulations
- degradation of tepoxalin ([2]; 0.1% microemulsion (castor oil, Tween 60, citrate/phosphate buffer), pH 5.0, 6.0, 7.0, 7.6, no Edetate, 16 hours at 100°C): The degradation occurs greatest at pH 5.0 and 7.6
- degradation of tepoxalin ([2]; 0.1% tepoxalin in 50:50 water:ethanol, pH 5.0, 6.0, 7.0, 8.0, 12.6, 16 hours at 100°C): a degradation peak eluting after tepoxalin in samples at pH 6, 7, 8, 12.6 but not at pH 5.0
- degradation of tepoxalin ([2]; microemulsion with disodium Edetate 0.03%, pH 5.0, 5.5, 6.0 and 7.0): Degradation was minimal at pH 5.0, 5.5, and 6.0
- degradation of tepoxalin ([2]; microemulsion with disodium Edetate 0.03%, pH 6.0 to 7.0): Degradation is minimal at pH 6.0 and increases with pH to 7.0
